Measurements as given in patent US7820439B2, “In vitro generation of GABAergic neurons from pluripotent stem cells” (Reliance Life Sciences PVT Ltd., priority 2003, dated 2010).

System: neuronal progenitor cells derived from murine ES cells
Assay: Differentiation of neuronal progenitor cells into GABAergic neurons in differentiation media containing Ara-C
Assay type: cell-based
Description: The expanded neuronal progenitor cells were differentiated by culturing the cells in a differentiation media containing Neurobasal A medium (Gibco), FCS (10-20%) (HYCLONE), and B27 supplement (2-10%) (Gibco), but no β-FGF. Additionally, the differentiation media contained factors to enhance GABAergic neuron yield, preferably Ara-C (Sigma Chemical Co. USA). […] After 3 days of culture in the differentiation media containing Ara-C, the cells were grown in the same media without Ara-C for 8, 12, or 16 days. When the neuronal progenitor cells were cultured in differentiation media containing Ara-C for 3 days, and the cells were then grown in differentiation media without Ara-C for 16 days, at least about 60% of the neuronal progenitor cells differentiated into GABAergic neurons (FIG. 6).
The differentiated neuronal cell types generated according to the present disclosure were evaluated both by the overall morphology of the cells, as well as the phenotypes identified by immunoflourescence. […]
The cells were then incubated overnight at 4° C. with a primary antibody (antibody dilution was made in 1% BSA). […] The chamber slides were observed under fluorescence microscope to evaluate the immunopositive cells in the different stages of differentiation. […]

Substance: cytosine β-d-Arabino furanoside [Ara-C]
- percentage of GABAergic neurons in the neuronal population derived from murine ES cells (Ara-C 20 ug/ml in differentiation media): increased the percentage of GABAergic neurons
- neuronal progenitor cells differentiated into GABAergic neurons (differentiation media containing Ara-C for 3 days, then without Ara-C for 16 days (FIG. 6)): at least 60%
